Test results as given in US12295936B2, “Immunomodulating urea azalides” (Zoetis Services LLC, priority 2020, dated 2025).
Like-named read-outs stand apart in the source and are kept apart here.

Assays:
IL-6 = test: LPS-stimulated whole bovine blood assay, MSD cytokine detection; assay type: cell-based; details: Bos taurus, read-out: IL-6 (IC50 μM)
From the text: In order to correlate RNA sequencing data to cytokine changes the whole blood assay was utilized. […] The enhancement result represents an overall stimulation of cytokine levels due to cellular stress or potential toxicity with increasing concentrations of the compound, representing a typical bell shape response curve for immunomodulatory activity.

[1] = tested on: BRD pathogens, M. haemolytica and P. multocida; test: MIC screening panel of BRD pathogens (antibacterial / non-antibacterial); details: read-out: antibacterial / non-antibacterial (MIC for the BRD pathogens)
IL-1β = test: LPS-stimulated whole bovine blood assay, MSD cytokine detection; assay type: cell-based; details: overstimulation of IL-1β, LPS-stimulated bovine whole blood
TNF-α = test: as above; assay type: cell-based; details: Bos taurus, read-out: TNF-α (IC50 μM)
[2] = LPS-stimulated bovine whole blood

IC50 (IL-6; [2]) [µM]	IC50 (TNF-α; [2]) [µM]	SMILES	MIC [1] [mg/L]	IL-1β OS of LPS (IL-1β) [µM]	IC50 (IL-6) [µM]	IC50 (TNF-α) [µM]
246	> 250	CC[C@H]1OC(=O)[C@H](C)[C@@H](O)[C@H](C)[C@@H](O[C@@H]2O[C@H](C)C[C@H](N(C)C(=O)Nc3ccc(OC)cc3)[C@H]2O)[C@](C)(O)C[C@@H](C)CN[C@H](C)[C@@H](O)[C@]1(C)O [Example A-22, 1-((2S,3R,4S,6R)-2-(((2R,3S,4R,5R,8R,10R,11R,12S,13S,14R)-2-ethyl-3,4,10,13-tetrahydroxy-3,5,8,10,12,14-hexamethyl-15-oxo-1-oxa-6-azacyclopentadecan-11-yl)oxy)-3-hydroxy-6-methyltetrahydro-2H-pyran-4-yl)-3-(4-methoxyphenyl)-1-methylurea]	> 64	100		
8	2	CC[C@H]1OC(=O)[C@H](C)[C@@H](O[C@H]2C[C@@](C)(OC)[C@@H](O)[C@H](C)O2)[C@H](C)[C@@H](O[C@@H]2O[C@H](C)C[C@H](N(C)C(=O)Nc3ccc(C(F)(F)F)cc3)[C@H]2O)[C@](C)(O)C[C@@H](C)CN(C)[C@H](C)[C@@H](O)[C@]1(C)O [Example B-8, 1-((2S,3R,4S,6R)-2-(((2R,3S,4R,5R,8R,10R,11R,12S,13S,14R)-2-ethyl-3,4,10-trihydroxy-13-(((2R,4R,5S,6S)-5-hydroxy-4-methoxy-4,6-dimethyltetrahydro-2H-pyran-2-yl)oxy)-3,5,6,8,10,12,14-heptamethyl-15-oxo-1-oxa-6-azacyclopentadecan-11-yl)oxy)-3-hydroxy-6-methyltetrahydro-2H-pyran-4-yl)-1-methyl-3-(4-(trifluoromethyl)phenyl)urea]	> 64	6		
116	107	CC[C@H]1OC(=O)[C@H](C)[C@@H](O[C@H]2C[C@@](C)(OC)[C@@H](O)[C@H](C)O2)[C@H](C)[C@@H](O[C@@H]2O[C@H](C)C[C@H](N(C)C(=O)Nc3ccc(F)cc3)[C@H]2O)[C@](C)(O)C[C@@H](C)CN(C)[C@H](C)[C@@H](O)[C@]1(C)O [Example B-9, 1-((2S,3R,4S,6R)-2-(((2R,3S,4R,5R,8R,10R,11R,12S,13S,14R)-2-ethyl-3,4,10-trihydroxy-13-(((2R,4R,5S,6S)-5-hydroxy-4-methoxy-4,6-dimethyltetrahydro-2H-pyran-2-yl)oxy)-3,5,6,8,10,12,14-heptamethyl-15-oxo-1-oxa-6-azacyclopentadecan-11-yl)oxy)-3-hydroxy-6-methyltetrahydro-2H-pyran-4-yl)-3-(4-fluorophenyl)-1-methylurea]	> 64	28		
35	40	CC[C@H]1OC(=O)[C@H](C)[C@@H](O[C@H]2C[C@@](C)(OC)[C@](O)(CCl)[C@H](C)O2)[C@H](C)[C@@H](O[C@@H]2O[C@H](C)C[C@H](N(C)C(=O)N(C)c3ccccc3)[C@H]2O)[C@](C)(O)C[C@@H](C)CN[C@H](C)[C@@H](O)[C@]1(C)O [Example E-2, 1-((2S,3R,4S,6R)-2-(((2R,3S,4R,5R,8R,10R,11R,12S,13S,14R)-13-(((2R,4R,5S,6S)-5-(chloromethyl)-5-hydroxy-4-methoxy-4,6-dimethyltetrahydro-2H-pyran-2-yl)oxy)-2-ethyl-3,4,10-trihydroxy-3,5,8,10,12,14-hexamethyl-15-oxo-1-oxa-6-azacyclopentadecan-11-yl)oxy)-3-hydroxy-6-methyltetrahydro-2H-pyran-4-yl)-1,3-dimethyl-3-phenylurea]	> 64	40		
> 500	> 500	CC[C@H]1OC(=O)[C@H](C)[C@@H](O[C@H]2C[C@@](C)(OC)[C@](O)(CN3CCN(C)CC3)[C@H](C)O2)[C@H](C)[C@@H](O[C@@H]2O[C@H](C)C[C@H](N(C)C(=O)Nc3cccnc3)[C@H]2O)[C@](C)(O)C[C@@H](C)CN[C@H](C)[C@@H](O)[C@]1(C)O [Example J-8, 1-((2S,3R,4S,6R)-2-(((2R,3S,4R,5R,8R,10R,11R,12S,13S,14R)-2-ethyl-3,4,10-trihydroxy-13-(((2R,4R,5S,6S)-5-hydroxy-4-methoxy-4,6-dimethyl-5-((4-methylpiperazin-1-yl)methyl)tetrahydro-2H-pyran-2-yl)oxy)-3,5,8,10,12,14-hexamethyl-15-oxo-1-oxa-6-azacyclopentadecan-11-yl)oxy)-3-hydroxy-6-methyltetrahydro-2H-pyran-4-yl)-1-methyl-3-(pyridin-3-yl)urea]		>500		
> 250	122	CC[C@H]1OC(=O)[C@H](C)[C@@H](O[C@H]2C[C@@](C)(OC)[C@](O)(CN3CC(N(C)C)C3)[C@H](C)O2)[C@H](C)[C@@H](O[C@@H]2O[C@H](C)C[C@H](N(C)C(=O)N(C)c3ccccc3)[C@H]2O)[C@](C)(O)C[C@@H](C)CN[C@H](C)[C@@H](O)[C@]1(C)O [Example J-26, 1-((2S,3R,4S,6R)-2-(((2R,3S,4R,5R,8R,10R,11R,12S,13S,14R)-13-(((2R,4R,5S,6S)-5-((3-(dimethylamino)azetidin-1-yl)methyl)-5-hydroxy-4-methoxy-4,6-dimethyltetrahydro-2H-pyran-2-yl)oxy)-2-ethyl-3,4,10-trihydroxy-3,5,8,10,12,14-hexamethyl-15-oxo-1-oxa-6-azacyclopentadecan-11-yl)oxy)-3-hydroxy-6-methyltetrahydro-2H-pyran-4-yl)-1,3-dimethyl-3-phenylurea]		100		
124	48	CC[C@H]1OC(=O)[C@H](C)[C@@H](O[C@H]2C[C@@](C)(OC)[C@](O)(Cn3cncn3)[C@H](C)O2)[C@H](C)[C@@H](O[C@@H]2O[C@H](C)C[C@H](N(C)C(=O)N(C)c3ccccc3)[C@H]2O)[C@](C)(O)C[C@@H](C)CN[C@H](C)[C@@H](O)[C@]1(C)O [Example J-27, 1-((2S,3R,4S,6R)-2-(((2R,3S,4R,5R,8R,10R,11R,12S,13S,14R)-13-(((2R,4R,5S,6S)-5-((1H-1,2,4-triazol-1-yl)methyl)-5-hydroxy-4-methoxy-4,6-dimethyltetrahydro-2H-pyran-2-yl)oxy)-2-ethyl-3,4,10-trihydroxy-3,5,8,10,12,14-hexamethyl-15-oxo-1-oxa-6-azacyclopentadecan-11-yl)oxy)-3-hydroxy-6-methyltetrahydro-2H-pyran-4-yl)-1,3-dimethyl-3-phenylurea]		250		
152	57	CC[C@H]1OC(=O)[C@H](C)[C@@H](O[C@H]2C[C@@](C)(OC)[C@](O)(Cn3ccnn3)[C@H](C)O2)[C@H](C)[C@@H](O[C@@H]2O[C@H](C)C[C@H](N(C)C(=O)N(C)c3ccccc3)[C@H]2O)[C@](C)(O)C[C@@H](C)CN[C@H](C)[C@@H](O)[C@]1(C)O [Example J-28, 1-((2S,3R,4S,6R)-2-(((2R,3S,4R,5R,8R,10R,11R,12S,13S,14R)-13-(((2R,4R,5S,6S)-5-((1H-1,2,3-triazol-1-yl)methyl)-5-hydroxy-4-methoxy-4,6-dimethyltetrahydro-2H-pyran-2-yl)oxy)-2-ethyl-3,4,10-trihydroxy-3,5,8,10,12,14-hexamethyl-15-oxo-1-oxa-6-azacyclopentadecan-11-yl)oxy)-3-hydroxy-6-methyltetrahydro-2H-pyran-4-yl)-1,3-dimethyl-3-phenylurea]		100		
		CC[C@H]1OC(=O)[C@H](C)[C@@H](O[C@H]2C[C@@](C)(OC)[C@](O)(Cn3cnnn3)[C@H](C)O2)[C@H](C)[C@@H](O[C@@H]2O[C@H](C)C[C@H](N(C)C(=O)N(C)c3ccccc3)[C@H]2O)[C@](C)(O)C[C@@H](C)CN[C@H](C)[C@@H](O)[C@]1(C)O [Example J-29, 1-((2S,3R,4S,6R)-2-(((2R,3S,4R,5R,8R,10R,11R,12S,13S,14R)-13-(((2R,4R,5S,6S)-5-((1H-tetrazol-1-yl)methyl)-5-hydroxy-4-methoxy-4,6-dimethyltetrahydro-2H-pyran-2-yl)oxy)-2-ethyl-3,4,10-trihydroxy-3,5,8,10,12,14-hexamethyl-15-oxo-1-oxa-6-azacyclopentadecan-11-yl)oxy)-3-hydroxy-6-methyltetrahydro-2H-pyran-4-yl)-1,3-dimethyl-3-phenylurea]		40	56	19
		CC[C@H]1OC(=O)[C@H](C)[C@@H](O[C@H]2C[C@@](C)(OC)[C@](O)(Cn3ncnn3)[C@H](C)O2)[C@H](C)[C@@H](O[C@@H]2O[C@H](C)C[C@H](N(C)C(=O)N(C)c3ccccc3)[C@H]2O)[C@](C)(O)C[C@@H](C)CN[C@H](C)[C@@H](O)[C@]1(C)O [Example J-30, 1-((2S,3R,4S,6R)-2-(((2R,3S,4R,5R,8R,10R,11R,12S,13S,14R)-13-(((2R,4R,5S,6S)-5-((2H-tetrazol-2-yl)methyl)-5-hydroxy-4-methoxy-4,6-dimethyltetrahydro-2H-pyran-2-yl)oxy)-2-ethyl-3,4,10-trihydroxy-3,5,8,10,12,14-hexamethyl-15-oxo-1-oxa-6-azacyclopentadecan-11-yl)oxy)-3-hydroxy-6-methyltetrahydro-2H-pyran-4-yl)-1,3-dimethyl-3-phenylurea]		40	111	16
